Values quoted from earlier work, collected in patent US20100150868A1, “Methods of Individually Optimizing Treatment for an Inflammation Associated Disease” (Tel HaShomer Medical Research Infrastructure and Services …, priority 2005, published 2010).

Test system: TNF-α secretion of MOG stimulated PBMC
Settings: in vitro, 10 μg/ml

For Glatiramer acetate [Copaxone], the “inhibitory effect on TNF-α producing cells compared with in-vivo experiments” value is listed as “same inhibitory effect”.
